Assay: log P (HPLC/MS data of the preparation examples)
Settings: HCOOH (formic acid)

| Structure (SMILES) | chromatographic logP |
| --- | --- |
| Cn1c(C(=NOCc2nccc(N(C(=O)C3CC3)C(=O)C3CC3)n2)c2ccccc2)cnc1C(=O)C1CC1 [Example 312, N-(cyclopropylcarbonyl)-N-(2-{[({[2-(cyclopropylcarbonyl)-1-methyl-1H-imidazol-5-yl](phenyl)methylene}amino)oxy]methyl}pyrimidin-4-yl)cyclopropanecarboxamide] | 3.73 |

Same assay, conditions: LC-MS, method [b]: pH 2.7 with 0.1% formic acid in water and acetonitrile, linear gradient 10% to 95% acetonitrile

| Structure (SMILES) | log p |
| --- | --- |
| Cc1cc(C(F)(F)F)nn1CC(=O)Nc1cccc(CON=C(c2ccccc2)c2nccn2C)n1 [Example 279] | 2.61^[b] |
| Cn1ccnc1C(=NOCc1cccc(NC(=O)COc2ccccc2)n1)c1ccccc1 [Example 280] | 2.58^[b] |
| Cn1ccnc1C(=NOCc1cccc(NC(=O)CCC2CCCC2)n1)c1ccccc1 [Example 281] | 3.19^[b] |
| Cn1ccnc1C(=NOCc1cccc(NC(=O)CCC2CCCCC2)n1)c1ccccc1 [Example 282] | 3.67^[b] |
| Cn1ccnc1C(=NOCc1cccc(NC(=O)CSc2ccccc2)n1)c1ccccc1 [Example 283] | 2.63^[b] |
| Cn1ccnc1C(=NOCc1cccc(NC(=O)CCC2CCCC2)n1)c1cccc(F)c1 [Example 284] | 3.44^[b] |
| Cn1ccnc1C(=NOCc1cccc(NC(=O)CCC2CCCCC2)n1)c1cccc(F)c1 [Example 285] | 3.92^[b] |
| Cn1ccnc1C(=NOCc1cccc(NC(=O)CSc2ccccc2)n1)c1cccc(F)c1 [Example 286] | 2.82^[b] |
| CSCCC(=O)Nc1cccc(CON=C(c2cccc(F)c2)c2nccn2C)n1 [Example 287] | 2.07^[b] |
| CCC(C)CC(=O)Nc1cccc(CON=C(c2cccc(F)c2)c2nccn2C)n1 (stereo not shown) [Example 288] | 2.77^[b] |
| CCCC(C)C(=O)Nc1cccc(CON=C(c2cccc(F)c2)c2nccn2C)n1 (stereo not shown) [Example 289] | 2.77^[b] |
| Cn1ccnc1C(=NOCc1cccc(NC(=O)Cc2cccs2)n1)c1cccc(F)c1 [Example 290] | 2.44^[b] |
| Cn1ccnc1C(=NOCc1cccc(NC(=O)Cc2ccccc2Cl)n1)c1cccc(F)c1 [Example 291] | 2.8^[b] |
| Cc1cc(C(F)(F)F)nn1CC(=O)Nc1cccc(CON=C(c2cccc(F)c2)c2nccn2C)n1 [Example 292] | 2.8^[b] |
| Cn1ccnc1C(=NOCc1cccc(NC(=O)COc2ccccc2)n1)c1cccc(F)c1 [Example 293] | 2.63^[b] |
| Cn1ncnc1C(=NOCc1cccc(NC(=O)Cc2ccc(F)cc2)n1)c1ccccc1 [Example 294] | 3.15^[b] |
| Cn1ncnc1C(=NOCc1cccc(NC(=O)CCc2ccc(Cl)s2)n1)c1ccccc1 [Example 295] | 3.74^[b] |

| Structure (SMILES) | log p |
| --- | --- |
| Cn1ncnc1C(=NOCc1cccc(NC(=O)CCc2cc(Cl)cc(Cl)c2)n1)c1ccccc1 [Example 296] | 4.29^[b] |
| COc1ccc(CCC(=O)Nc2cccc(CON=C(c3ccccc3)c3ncnn3C)n2)cc1 [Example 297] | 3.25^[b] |
| COc1cccc(CCC(=O)Nc2cccc(CON=C(c3ccccc3)c3ncnn3C)n2)c1 [Example 298] | 3.25^[b] |
| COc1ccccc1CCC(=O)Nc1cccc(CON=C(c2ccccc2)c2ncnn2C)n1 [Example 299] | 3.44^[b] |
| Cn1ncnc1C(=NOCc1cccc(NC(=O)CCc2ccc(Cl)cc2)n1)c1ccccc1 [Example 300] | 3.72^[b] |
| Cn1ncnc1C(=NOCc1cccc(NC(=O)CCc2ccccc2Cl)n1)c1ccccc1 [Example 301] | 3.72^[b] |
| Cn1ncnc1C(=NOCc1cccc(NC(=O)CCc2ccc(C(F)(F)F)cc2)n1)c1ccccc1 [Example 302] | 3.9^[b] |
| Cn1ncnc1C(=NOCc1cccc(NC(=O)CCc2ccccc2C(F)(F)F)n1)c1ccccc1 [Example 303] | 3.87^[b] |
| Cn1ncnc1C(=NOCc1cccc(NC(=O)C2CC2c2ccccc2)n1)c1ccccc1 (stereo not shown) [Example 304] | 3.61^[b] |
| C=CCCOC(=O)Nc1cccc(CON=C(c2ccccc2)c2ncnn2C)n1 [Example 305] | 3.21^[b] |
| CC(C)CCC(=O)Nc1cccc(CON=C(c2ccccc2)c2ncnn2C)n1 [Example 306] | 3.37^[b] |
| CCC(C)CC(=O)Nc1cccc(CON=C(c2ccccc2)c2ncnn2C)n1 (stereo not shown) [Example 307] | 3.31^[b] |
| Cn1ncnc1C(=NOCc1cccc(NC(=O)CCCCCl)n1)c1ccccc1 [Example 308] | 2.98^[b] |
| C#CCCCC(=O)Nc1cccc(CON=C(c2ccccc2)c2ncnn2C)n1 [Example 309] | 2.7^[b] |
| C=CCCC(=O)Nc1cccc(CON=C(c2ccccc2)c2ncnn2C)n1 [Example 310] | 2.77^[b] |
| Cn1ncnc1C(=NOCc1cccc(NC(=O)Cc2cccs2)n1)c1ccccc1 [Example 311] | 2.98^[b] |

Same assay, conditions: method [b]: LC-MS at pH 2.7, 0.1% formic acid in water / acetonitrile, linear gradient 10% to 95% acetonitrile

| Structure (SMILES) | log p |
| --- | --- |
| Cn1ncnc1C(=NOCc1cccc(NC(=O)Cc2cccc(F)c2)n1)c1ccccc1 [Example 235] | 3.15^[b] |
| COCCC(=O)Nc1cccc(CON=C(c2ccccc2)c2ncnn2C)n1 [Example 237] | 2.17^[b] |
| Cn1ncnc1C(=NOCc1cccc(NC(=O)CCc2cccc(Cl)c2)n1)c1ccccc1 [Example 238] | 3.73^[b] |
| Cn1ncnc1C(=NOCc1cccc(NC(=O)CCc2cccc(C(F)(F)F)c2)n1)c1ccccc1 [Example 239] | 3.87^[b] |
| CC(C(=O)Nc1cccc(CON=C(c2ccccc2)c2ncnn2C)n1)c1ccccc1 (stereo not shown) [Example 240] | 3.42^[b] |
| Cn1ncnc1C(=NOCc1cccc(NC(=O)Cc2cc(F)cc(F)c2)n1)c1ccccc1 [Example 241] | 3.33^[b] |
| Cn1ncnc1C(=NOCc1cccc(NC(=O)Cc2ccc(Cl)cc2)n1)c1ccccc1 [Example 242] | 3.46^[b] |
| Cn1ncnc1C(=NOCc1cccc(NC(=O)Cc2ccccc2Cl)n1)c1ccccc1 [Example 243] | 3.31^[b] |
| Cn1ncnc1C(=NOCc1cccc(NC(=O)Cc2cccc(C(F)(F)F)c2)n1)c1ccccc1 [Example 244] | 3.64^[b] |
| Cn1ncnc1C(=NOCc1cccc(NC(=O)Cc2ccccc2C(F)(F)F)n1)c1ccccc1 [Example 245] | 3.51^[b] |
| COc1ccc(CC(=O)Nc2cccc(CON=C(c3ccccc3)c3ncnn3C)n2)cc1 [Example 246] | 3.02^[b] |
| COc1cccc(CC(=O)Nc2cccc(CON=C(c3ccccc3)c3ncnn3C)n2)c1 [Example 247] | 3.06^[b] |
| Cn1ncnc1C(=NOCc1cccc(NC(=O)C2CCCCC2)n1)c1ccccc1 [Example 248] | 3.39^[b] |
| Cn1ncnc1C(=NOCc1cccc(NC(=O)CCCc2ccccc2)n1)c1ccccc1 [Example 249] | 3.6^[b] |
| Cn1ncnc1C(=NOCc1cccc(NC(=O)CSc2ccccc2)n1)c1ccccc1 [Example 250] | 3.33^[b] |
| Cn1ncnc1C(=NOCc1cccc(NC(=O)C2CCCCO2)n1)c1ccccc1 (stereo not shown) [Example 251] | 3.15^[b] |
| CCc1ccc(C(=O)Nc2cccc(CON=C(c3ccccc3)c3ncnn3C)n2)cc1 [Example 252] | 3.73^[b] |
| CCCCCOC(=O)Nc1cccc(CON=C(c2ccccc2)c2cncn2C)n1 [Example 253] | 2.39^[b] |
| CCCCCCCCCC(=O)Nc1cccc(CON=C(c2ccccc2)c2cncn2C)n1 [Example 254] | 3.09^[b] |
| Cn1cncc1C(=NOCc1cccc(NC(=O)COc2ccccc2)n1)c1ccccc1 [Example 255] | 2.04^[b] |
| CCCC(=O)Nc1cccc(CON=C(c2ccccc2)c2cncn2C)n1 [Example 256] | 1.6^[b] |

| Structure (SMILES) | log p |
| --- | --- |
| CCCCC(=O)Nc1cccc(CON=C(c2ccccc2)c2cncn2C)n1 [Example 258] | 1.82^[b] |
| CCC(C(=O)Nc1cccc(CON=C(c2ccccc2)c2cncn2C)n1)c1ccccc1 (stereo not shown) [Example 259] | 2.3^[b] |
| Cn1c(C(=NOCc2nccc(N(C(=O)C3CC3)C(=O)C3CC3)n2)c2ccccc2)cnc1C(=O)C1CC1 [Example 260] | 3.73^[b] |
| CCCc1ccc(C(=O)Nc2cccc(CON=C(c3ccccc3)c3ncnn3C)n2)cc1 [Example 261] | 4.24^[b] |
| CCC(C)CC(=O)Nc1cccc(CON=C(c2ccccc2)c2nccn2C)n1 (stereo not shown) [Example 262] | 2.54^[b] |
| CCCC(C)C(=O)Nc1cccc(CON=C(c2ccccc2)c2nccn2C)n1 (stereo not shown) [Example 263] | 2.54^[b] |
| Cn1ccnc1C(=NOCc1cccc(NC(=O)Cc2cccs2)n1)c1ccccc1 [Example 264] | 2.23^[b] |
| Cn1ccnc1C(=NOCc1cccc(NC(=O)Cc2ccccc2Cl)n1)c1ccccc1 [Example 265] | 2.61^[b] |
| COc1ccc(CC(=O)Nc2cccc(CON=C(c3ccccc3)c3nccn3C)n2)cc1 [Example 266] | 2.33^[b] |
| COc1cccc(CC(=O)Nc2cccc(CON=C(c3ccccc3)c3nccn3C)n2)c1 [Example 267] | 2.37^[b] |
| COc1ccccc1CC(=O)Nc1cccc(CON=C(c2ccccc2)c2nccn2C)n1 [Example 268] | 2.47^[b] |
| Cn1ccnc1C(=NOCc1cccc(NC(=O)Cc2ccccc2F)n1)c1ccccc1 [Example 269] | 2.4^[b] |
| COCCC(=O)Nc1cccc(CON=C(c2ccccc2)c2nccn2C)n1 [Example 270] | 4.53^[b] |
| CSCCC(=O)Nc1cccc(CON=C(c2ccccc2)c2nccn2C)n1 [Example 271] | 1.9^[b] |
| Cn1ccnc1C(=NOCc1cccc(NC(=O)OCCF)n1)c1ccccc1 [Example 272] | 1.81^[b] |
| COc1ccc(CC(=O)Nc2cccc(CON=C(c3cccc(F)c3)c3nccn3C)n2)cc1 [Example 273] | 2.54^[b] |
| COc1cccc(CC(=O)Nc2cccc(CON=C(c3cccc(F)c3)c3nccn3C)n2)c1 [Example 274] | 2.58^[b] |
| COc1ccccc1CC(=O)Nc1cccc(CON=C(c2cccc(F)c2)c2nccn2C)n1 [Example 275] | 2.66^[b] |
| Cn1ccnc1C(=NOCc1cccc(NC(=O)Cc2ccccc2F)n1)c1cccc(F)c1 [Example 276] | 2.59^[b] |
| COCCC(=O)Nc1cccc(CON=C(c2cccc(F)c2)c2nccn2C)n1 [Example 277] | 1.69^[b] |
| CC(C(=O)Nc1cccc(CON=C(c2cccc(F)c2)c2nccn2C)n1)c1ccccc1 (stereo not shown) [Example 278] | 2.92^[b] |
